Tests used:
[1] = test system: BaF3; assay: Antiproliferative activity against mouse BaF3 cells transfected with ETV6-wild type TRKB assessed as cell viability incubated for 72 hrs by CCK8 assay; assay type: functional, cell-based; conditions: BaF3, 72 h
[2] = test system: BaF3; assay: Antiproliferative activity against mouse BaF3 cells transfected with ETV6-wild type TRKC assessed as cell viability incubated for 72 hrs by CCK8 assay; assay type: functional, cell-based; conditions: BaF3, 72 h
[3] = test system: BaF3; assay type: functional, cell-based; conditions: Mus musculus, BaF3, 72 h
[4] = test system: BaF3; assay: animal or person; assay type: functional; conditions: Mus musculus, BaF3, po; dose 15 mg/kg; time 12-14 day; read-out: TGI
[5] = test system: BaF3; assay: Antitumor activity against mouse BAF3 cells harboring ETV6 fused TRKC G623R mutant xenografted in BALB/c nude mouse assessed as tumor growth inhibition at 30 mg/kg, po administered twice daily for 12 to […] consecutive days; assay type: functional; conditions: time 12-14 day, read-out: TGI
[6] = test system: BaF3; assay: animal or person; assay type: functional; conditions: Mus musculus, BaF3, po; dose 100 mg/kg; time 12-14 day; read-out: TGI
[7] = Volume of distribution in Sprague-Dawley rat 1 mg/kg, iv measured upto 24 hrs by LC-MS/MS analysis; assay type: ADME, organism-based; conditions: in vivo, read-out: Vz
[8] = Toxicity in BALB/c mouse xenografted with mouse BAF3 cells harboring ETV6 fused TRKC G623R mutant assessed as mortality at 15 to 30 mg/kg, po administered twice daily for 12 to […] consecutive days; assay type: organism-based; conditions: in vivo, dose lower 15 mg/kg, time lower 12 day, dose upper 30 mg/kg, time upper 14 day
[9] = AUC(0 to infinity) in Sprague-Dawley rat at 1 mg/kg, iv measured upto 24 hrs by LC-MS/MS analysis; assay type: ADME, organism-based; set-up: route intravenous, dose 1 mg/kg, time <=24; conditions: in vivo
[10] = AUC(0 to infinity) in Sprague-Dawley rat at 5 mg/kg, ig measured upto 24 hrs by LC-MS/MS analysis; assay type: ADME, organism-based; set-up: route […], dose 5 mg/kg, time <=24; conditions: in vivo, po
[11] = Clearance in Sprague-Dawley rat at 1 mg/kg, iv measured upto 24 hrs by LC-MS/MS analysis; assay type: ADME, organism-based; conditions: in vivo
[12] = Oral bioavailability in Sprague-Dawley rat at 5 mg/kg measured upto 24 hrs by LC-MS/MS analysis; assay type: ADME, organism-based; conditions: in vivo
[13] = Tmax in Beagle dog at 5 mg/kg, ig measured upto 24 hrs by LC-MS/MS analysis; assay type: ADME, organism-based, Canis lupus familiaris; conditions: in vivo, po
[14] = Cmax in Beagle dog at 1 mg/kg, iv measured upto 24 hrs by LC-MS/MS analysis; assay type: ADME, organism-based, Canis lupus familiaris; set-up: route intravenous, dose 1 mg/kg, time <=24; conditions: in vivo
[15] = Cmax in Beagle dog at 5 mg/kg, ig measured upto 24 hrs by LC-MS/MS analysis; assay type: ADME, organism-based, Canis lupus familiaris; set-up: route […], dose 5 mg/kg, time <=24; conditions: in vivo, po
[16] = AUC(0 to infinity) in Beagle dog at 1 mg/kg, iv measured upto 24 hrs by LC-MS/MS analysis; assay type: ADME, organism-based, Canis lupus familiaris; set-up: route intravenous, dose 1 mg/kg, time <=24; conditions: in vivo
[17] = Volume of distribution in Beagle dog at 1 mg/kg, iv measured upto 24 hrs by LC-MS/MS analysis; assay type: ADME, organism-based, Canis lupus familiaris; conditions: in vivo, read-out: Vz
[18] = Clearance in Beagle dog at 1 mg/kg, iv measured upto 24 hrs by LC-MS/MS analysis; assay type: ADME, organism-based, Canis lupus familiaris; conditions: in vivo
[19] = Clearance in Beagle dog at 5 mg/kg, ig measured upto 24 hrs by LC-MS/MS analysis; assay type: ADME, organism-based, Canis lupus familiaris; conditions: in vivo, po
[20] = Plasma protein binding in human; assay type: ADME, cell-free; conditions: read-out: PPB (converted)
[21] = molecular target: hERG (KCNH2) (Homo sapiens, UniProt Q12809); assay: Inhibition of hERG at 10 uM relative to control
[22] = molecular target: RAC-alpha serine/threonine-protein kinase (Homo sapiens) (UniProt P31749); assay: Inhibition of AKT1 (unknown origin) at 1 uM relative to control
[23] = molecular target: ALK tyrosine kinase receptor (Homo sapiens) (UniProt Q9UM73); assay: Inhibition of ALK (unknown origin) at 1 uM relative to control
[24] = molecular target: Cytoplasmic tyrosine-protein kinase BMX (Homo sapiens) (UniProt P51813); assay: Inhibition of BMX (unknown origin) at 1 uM relative to control
[25] = molecular target: Calcium/calmodulin-dependent protein kinase type II subunit beta (Homo sapiens) (UniProt Q13554); assay: Inhibition of CAMK2 (unknown origin) at 1 uM relative to control
[26] = molecular target: Serine/threonine-protein kinase Chk1 (Homo sapiens) (UniProt O14757); assay: Inhibition of CHK1 (unknown origin) at 1 uM relative to control
Serine/threonine-protein kinase Chk1 (Homo sapiens), sequence (O14757 whole entry): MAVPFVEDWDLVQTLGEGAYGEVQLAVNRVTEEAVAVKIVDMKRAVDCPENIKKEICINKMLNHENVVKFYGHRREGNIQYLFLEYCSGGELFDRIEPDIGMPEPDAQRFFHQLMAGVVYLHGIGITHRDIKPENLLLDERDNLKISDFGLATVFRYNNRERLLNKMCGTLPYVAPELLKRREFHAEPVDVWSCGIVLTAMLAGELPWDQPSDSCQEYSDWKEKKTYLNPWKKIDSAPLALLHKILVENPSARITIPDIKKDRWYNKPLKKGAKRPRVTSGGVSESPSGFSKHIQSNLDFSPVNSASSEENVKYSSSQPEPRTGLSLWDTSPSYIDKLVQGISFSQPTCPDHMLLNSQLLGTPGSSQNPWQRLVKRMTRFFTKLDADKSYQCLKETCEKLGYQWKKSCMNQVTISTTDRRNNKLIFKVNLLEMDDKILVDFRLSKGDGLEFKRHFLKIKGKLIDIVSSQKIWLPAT

[27] = molecular target: Serine/threonine-protein kinase DCLK2 (Homo sapiens) (UniProt Q8N568); assay: Inhibition of DCK2 (unknown origin) at 1 uM relative to control
Serine/threonine-protein kinase DCLK2 (Homo sapiens), sequence (Q8N568 whole entry): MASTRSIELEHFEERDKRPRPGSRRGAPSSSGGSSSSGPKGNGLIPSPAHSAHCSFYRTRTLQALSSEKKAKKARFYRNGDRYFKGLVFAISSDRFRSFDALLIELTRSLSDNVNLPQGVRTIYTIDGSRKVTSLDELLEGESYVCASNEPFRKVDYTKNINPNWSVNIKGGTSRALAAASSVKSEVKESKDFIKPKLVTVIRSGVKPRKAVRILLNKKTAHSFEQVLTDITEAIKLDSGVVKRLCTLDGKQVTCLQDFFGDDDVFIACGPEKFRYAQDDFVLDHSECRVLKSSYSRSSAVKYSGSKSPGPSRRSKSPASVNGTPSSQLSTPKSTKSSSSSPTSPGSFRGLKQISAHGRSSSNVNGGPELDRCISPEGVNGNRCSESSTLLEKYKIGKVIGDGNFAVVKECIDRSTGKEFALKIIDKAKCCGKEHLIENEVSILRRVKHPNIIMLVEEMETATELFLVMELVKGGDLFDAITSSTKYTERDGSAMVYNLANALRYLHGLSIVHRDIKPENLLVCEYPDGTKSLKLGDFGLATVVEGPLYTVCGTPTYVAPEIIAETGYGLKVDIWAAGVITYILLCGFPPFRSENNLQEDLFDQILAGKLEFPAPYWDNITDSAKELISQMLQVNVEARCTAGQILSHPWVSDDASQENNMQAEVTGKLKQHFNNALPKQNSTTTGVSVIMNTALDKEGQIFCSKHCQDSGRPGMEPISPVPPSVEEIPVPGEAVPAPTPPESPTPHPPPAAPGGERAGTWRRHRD

[28] = molecular target: Epidermal growth factor receptor (Homo sapiens) (UniProt P00533); assay: Inhibition of EGFR (unknown origin) at 1 uM relative to control
[29] = molecular target: Focal adhesion kinase 1 (Homo sapiens) (UniProt Q05397); assay: Inhibition of FAK (unknown origin) at 1 uM relative to control
Focal adhesion kinase 1 (Homo sapiens), sequence (Q05397 2-1052 limits assumed): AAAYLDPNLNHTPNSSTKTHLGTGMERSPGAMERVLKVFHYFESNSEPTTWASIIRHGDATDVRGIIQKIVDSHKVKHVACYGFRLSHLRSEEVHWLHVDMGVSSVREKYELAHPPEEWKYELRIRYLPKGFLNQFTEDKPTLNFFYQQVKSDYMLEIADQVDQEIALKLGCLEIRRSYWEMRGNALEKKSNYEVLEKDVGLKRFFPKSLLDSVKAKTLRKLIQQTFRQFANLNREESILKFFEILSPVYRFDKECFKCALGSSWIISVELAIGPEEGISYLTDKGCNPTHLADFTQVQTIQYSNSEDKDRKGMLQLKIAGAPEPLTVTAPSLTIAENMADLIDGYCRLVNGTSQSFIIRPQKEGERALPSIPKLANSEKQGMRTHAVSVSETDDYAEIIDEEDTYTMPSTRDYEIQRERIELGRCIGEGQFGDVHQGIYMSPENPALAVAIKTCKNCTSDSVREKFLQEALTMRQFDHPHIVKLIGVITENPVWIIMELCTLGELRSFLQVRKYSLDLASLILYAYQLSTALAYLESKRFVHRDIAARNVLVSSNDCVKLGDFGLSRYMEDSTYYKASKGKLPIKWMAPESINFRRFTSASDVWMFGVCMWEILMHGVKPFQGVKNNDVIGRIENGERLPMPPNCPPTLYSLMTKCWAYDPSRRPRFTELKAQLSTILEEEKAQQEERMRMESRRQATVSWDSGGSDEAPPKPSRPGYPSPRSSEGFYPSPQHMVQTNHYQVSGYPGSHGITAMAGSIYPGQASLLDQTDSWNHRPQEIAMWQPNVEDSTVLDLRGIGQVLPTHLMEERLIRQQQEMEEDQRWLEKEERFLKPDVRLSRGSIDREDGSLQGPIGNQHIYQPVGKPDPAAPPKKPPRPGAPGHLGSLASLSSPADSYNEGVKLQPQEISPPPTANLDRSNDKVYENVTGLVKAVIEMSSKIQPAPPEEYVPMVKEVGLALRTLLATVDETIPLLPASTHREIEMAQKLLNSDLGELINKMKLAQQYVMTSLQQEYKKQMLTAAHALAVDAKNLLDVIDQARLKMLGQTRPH

[30] = molecular target: Vascular endothelial growth factor receptor 1 (Homo sapiens) (UniProt P17948); assay: Inhibition of FLT1 (unknown origin) at 1 uM relative to control
[31] = molecular target: Inhibitor of nuclear factor kappa-B kinase subunit beta (Homo sapiens) (UniProt O14920); assay: Inhibition of IKBKB (unknown origin) at 1 uM relative to control
[32] = molecular target: Vascular endothelial growth factor receptor 2 (Homo sapiens) (UniProt P35968); assay: Inhibition of KDR (unknown origin) at 1 uM relative to control
[33] = molecular target: Misshapen-like kinase 1 (Homo sapiens) (UniProt Q8N4C8); assay: Inhibition of MINK1 (unknown origin) at 1 uM relative to control
Misshapen-like kinase 1 (Homo sapiens), sequence (Q8N4C8 whole entry, looked up): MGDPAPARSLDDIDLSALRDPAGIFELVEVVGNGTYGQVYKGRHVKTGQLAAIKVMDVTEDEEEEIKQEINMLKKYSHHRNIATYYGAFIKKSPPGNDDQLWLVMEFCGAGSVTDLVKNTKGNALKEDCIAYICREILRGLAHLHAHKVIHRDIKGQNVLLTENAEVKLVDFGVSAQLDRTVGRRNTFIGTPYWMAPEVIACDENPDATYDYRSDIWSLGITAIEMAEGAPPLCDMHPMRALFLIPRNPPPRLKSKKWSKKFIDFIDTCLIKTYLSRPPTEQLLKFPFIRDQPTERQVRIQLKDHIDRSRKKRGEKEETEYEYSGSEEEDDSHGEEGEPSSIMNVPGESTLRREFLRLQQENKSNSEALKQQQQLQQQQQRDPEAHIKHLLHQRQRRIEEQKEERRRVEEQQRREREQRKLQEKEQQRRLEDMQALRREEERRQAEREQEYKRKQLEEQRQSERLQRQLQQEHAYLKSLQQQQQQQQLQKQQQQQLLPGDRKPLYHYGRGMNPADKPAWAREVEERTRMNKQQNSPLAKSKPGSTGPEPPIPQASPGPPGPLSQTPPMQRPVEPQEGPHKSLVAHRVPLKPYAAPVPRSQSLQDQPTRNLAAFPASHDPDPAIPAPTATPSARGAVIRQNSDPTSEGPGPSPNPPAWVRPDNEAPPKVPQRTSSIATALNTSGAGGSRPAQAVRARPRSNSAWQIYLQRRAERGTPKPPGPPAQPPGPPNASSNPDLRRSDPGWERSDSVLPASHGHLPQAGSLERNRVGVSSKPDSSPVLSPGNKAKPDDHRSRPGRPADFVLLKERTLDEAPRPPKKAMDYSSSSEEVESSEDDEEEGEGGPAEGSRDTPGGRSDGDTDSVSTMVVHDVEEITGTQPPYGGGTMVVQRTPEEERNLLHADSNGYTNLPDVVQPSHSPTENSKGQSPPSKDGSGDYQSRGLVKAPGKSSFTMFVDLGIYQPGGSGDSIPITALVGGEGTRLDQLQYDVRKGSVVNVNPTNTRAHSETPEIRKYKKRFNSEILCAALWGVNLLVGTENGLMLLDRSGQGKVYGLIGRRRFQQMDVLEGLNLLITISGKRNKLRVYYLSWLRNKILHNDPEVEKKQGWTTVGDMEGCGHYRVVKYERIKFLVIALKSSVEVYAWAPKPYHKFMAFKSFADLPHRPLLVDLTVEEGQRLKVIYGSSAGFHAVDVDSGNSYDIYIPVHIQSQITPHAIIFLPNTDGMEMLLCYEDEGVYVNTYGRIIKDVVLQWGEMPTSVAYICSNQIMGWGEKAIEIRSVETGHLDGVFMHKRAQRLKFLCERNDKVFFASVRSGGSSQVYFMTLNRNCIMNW

[34] = molecular target: Serine/threonine-protein kinase Nek6 (Homo sapiens) (UniProt Q9HC98); assay: Inhibition of NEK6 (unknown origin) at 1 uM relative to control
[35] = molecular target: PAS domain-containing serine/threonine-protein kinase (Homo sapiens) (UniProt Q96RG2); assay: Inhibition of PASK (unknown origin) at 1 uM relative to control
[36] = molecular target: Serine/threonine-protein kinase pim-1 (Homo sapiens) (UniProt P11309); assay: Inhibition of PIM1 (unknown origin) at 1 uM relative to control
[37] = molecular target: Proto-oncogene tyrosine-protein kinase ROS (Homo sapiens) (UniProt P08922); assay: Inhibition of ROS1 (unknown origin) at 1 uM relative to control
[38] = molecular target: Proto-oncogene tyrosine-protein kinase Src (Homo sapiens) (UniProt P12931); assay: Inhibition of SRC (unknown origin) at 1 uM relative to control
Proto-oncogene tyrosine-protein kinase Src (Homo sapiens), sequence (P12931 2-536 limits assumed): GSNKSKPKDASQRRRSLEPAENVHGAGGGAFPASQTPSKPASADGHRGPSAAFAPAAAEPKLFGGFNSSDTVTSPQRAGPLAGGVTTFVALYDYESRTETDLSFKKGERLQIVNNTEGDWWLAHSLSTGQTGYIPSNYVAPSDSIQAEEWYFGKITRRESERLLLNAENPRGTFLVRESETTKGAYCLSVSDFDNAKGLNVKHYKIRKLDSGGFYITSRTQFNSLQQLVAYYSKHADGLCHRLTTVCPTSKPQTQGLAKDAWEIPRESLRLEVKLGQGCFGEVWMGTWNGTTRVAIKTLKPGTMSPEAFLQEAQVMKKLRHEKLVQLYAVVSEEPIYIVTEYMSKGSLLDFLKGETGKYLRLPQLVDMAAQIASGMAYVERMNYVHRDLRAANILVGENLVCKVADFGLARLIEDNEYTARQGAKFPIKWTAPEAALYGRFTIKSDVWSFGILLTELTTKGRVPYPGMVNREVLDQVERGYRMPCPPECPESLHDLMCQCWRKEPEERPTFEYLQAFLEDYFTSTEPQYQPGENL

[39] = molecular target: High affinity nerve growth factor receptor (Homo sapiens, UniProt P04629); assay: Inhibition of TRKA (unknown origin) at 1 uM relative to control
[40] = Toxicity in BALB/c mouse xenografted with mouse BAF3 cells harboring TMP3 fused wild type TRKA assessed as mortality at 15 mg/kg, po administered twice daily for 12 to […] consecutive days; assay type: organism-based; conditions: in vivo, time 12-14 day
[41] = molecular target: NT-3 growth factor receptor (Homo sapiens, UniProt Q16288, G623R)
NT-3 growth factor receptor, sequence (Q16288 32-839 G623R limits assumed): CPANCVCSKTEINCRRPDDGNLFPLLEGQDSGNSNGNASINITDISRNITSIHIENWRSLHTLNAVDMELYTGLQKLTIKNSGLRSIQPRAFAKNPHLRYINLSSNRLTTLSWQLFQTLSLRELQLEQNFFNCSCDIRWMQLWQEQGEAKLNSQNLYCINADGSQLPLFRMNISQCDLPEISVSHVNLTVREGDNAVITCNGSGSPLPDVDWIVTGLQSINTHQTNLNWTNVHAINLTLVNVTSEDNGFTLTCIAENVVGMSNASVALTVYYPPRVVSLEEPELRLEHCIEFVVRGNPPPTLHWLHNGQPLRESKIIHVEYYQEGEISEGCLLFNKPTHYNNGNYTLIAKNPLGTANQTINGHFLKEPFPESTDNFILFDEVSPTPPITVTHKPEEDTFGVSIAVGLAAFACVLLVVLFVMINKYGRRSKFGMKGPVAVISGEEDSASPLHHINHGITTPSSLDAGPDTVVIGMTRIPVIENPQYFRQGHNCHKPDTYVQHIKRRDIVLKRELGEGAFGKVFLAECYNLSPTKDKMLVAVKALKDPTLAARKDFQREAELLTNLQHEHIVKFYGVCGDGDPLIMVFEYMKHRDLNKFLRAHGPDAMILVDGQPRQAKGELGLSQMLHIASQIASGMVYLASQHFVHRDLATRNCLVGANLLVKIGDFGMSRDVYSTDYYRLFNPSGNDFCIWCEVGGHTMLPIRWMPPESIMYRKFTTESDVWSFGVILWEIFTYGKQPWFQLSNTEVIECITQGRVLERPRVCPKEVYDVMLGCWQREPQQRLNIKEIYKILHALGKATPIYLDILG

Work on C[C@@H](Nc1ccn2ncc(-c3cnn(CCO)c3)c2n1)c1cc(F)ccc1OCC(F)F yielded an IC50 [1] of 0.3 nM, an IC50 [2] of 0.2 nM and an IC50 [3] of 0.2 nM. The inhibition in vivo at 15 mg/kg [4] was 85%, the inhibition in vivo at 30 mg/kg [5] was 88% and the inhibition in vivo at 100 mg/kg [6] was 99%. For the same compound, the Vd [7] was 40 L/kg, the Activity [8] was “Non-Toxic” and the AUC(0-inf) [9] was 213 ng·h/mL. For the same compound, the AUC(0-inf) [10] was 540 ng·h/mL, the clearance [11] was 83.3 mL/min/kg and the bioavailability [12] was 49%. For the same compound, the Tmax [13] was 49.8 min, the Cmax [14] was 1500 ng/mL and the Cmax [15] was 1570 ng/mL. It also gave an AUC(0-inf) [16] of 2140 ng·h/mL, a Vd [17] of 4.94 L/kg and a clearance [18] of 7.83 mL/min/kg. The CL/F [19] was 9.17 mL/min/kg, the fraction unbound [20] was 0.044 and the inhibition at 10 µM [21] was 23%. For the same compound, the inhibition [22] was < 50%, the inhibition [23] was > 80% and the inhibition [24] was > 80%. For the same compound, the inhibition [25] was < 50%, the inhibition [26] was < 50% and the inhibition [27] was < 50%. The inhibition [28] was < 50%, the inhibition [29] was > 80% and the inhibition [30] was < 50%. The inhibition [31] was < 50%, the inhibition [32] was < 50% and the inhibition [33] was < 50%. For the same compound, the inhibition [34] was < 50%, the inhibition [35] was < 50% and the inhibition [36] was < 50%. The inhibition [37] was > 80%, the inhibition [38] was < 50% and the inhibition [39] was > 80%. For the same compound, the Activity [40] was “Non-Toxic” and the IC50 [41] was 0.6 nM.
